Reference: article PMC10138577, “Prenylated Flavonoids with Selective Toxicity against Human Cancers” (International Journal of Molecular Sciences, 2023)

Tests used:
Type in all cases: cell-based
[1] = test system: SK-BR-3 human breast adenocarcinoma cells; test: In vitro antiproliferative assay (SRB), SK-BR-3; conditions: for IC50: Homo sapiens, SK-BR-3, 72 h exposure, SRB, mean ± SD; for Calculated selectivity index SIB: IC50 BALB/3T3/IC50 SK-BR-3; for Calculated selectivity index SIA: IC50 HLMEC/IC50 SK-BR-3
Excerpt: (§1) The following established in vitro cell lines were applied: human breast adenocarcinoma (MCF-7 and SK-BR-3), human breast ductal carcinoma (T47D), human prostate adenocarcinoma (PC-3), human prostate carcinoma (Du145), human colorectal adenocarcinoma (HT-29 and LoVo), doxorubicin-resistant human colorectal adenocarcinoma (LoVo/Dx), human myelomonocytic leukemia (MV-4-11), human lung adenocarcinoma (A549), normal murine embryonic fibroblasts (BALB/3T3) and human lung microvascular endothelial (HLMEC). All the cell lines were obtained from the American Type Culture Collection (Rockville, MD, USA) except for LoVo and LoVo/DX, which were received from the Technical University of Gdańsk, Poland, courtesy of Prof. E. Borowski. All the cell lines were maintained in the Institute of Immunology and Experimental Therapy, Wroclaw, Poland. The cells were cultured in the following media: DMEM medium (BALB/3T3), Eagle medium (MCF-7, SK-BR-3, Du145), RPMI medium (HLMEC, MV-4-11) or RPMI 1640 + Opti-MEM (1:1) medium (A549, T47D, LoVo, LoVo/Dx, PC-3, HT-29). The DMEM medium was supplemented with 2 mM L-glutamine and 10% fetal bovine serum. The Eagle medium was supplemented with 4 mM L-glutamine, 10% fetal bovine serum, 1 mM sodium pyruvate for Du145 cells or 2 mM L-glutamine, 1% amino acids and 0.8 mg L^−1 of insulin for MCF-7 and SK-BR-3. The RPMI medium was supplemented with 2 mM L-glutamine, 1 mM sodium pyruvate and 10% fetal bovine serum. The RPMI 1640 + Opti-MEM (1:1) medium was supplemented with 2 mM L-glutamine, 5% fetal bovine serum (PC-3, A549) and 0.8 mg L^−1 insulin (T47D) or 1 mM sodium pyruvate (HT-29, LoVo, LoVoDx) and 0.1 ug/mL doxorubicin (LoVo/Dx). The media contained antibiotics: 100 µg mL^−1 streptomycin and 100 U mL^−1 penicillin. All the cell lines were incubated at 37 °C in a humid atmosphere saturated with 5% CO2.
(§2) The details of this technique were described by Skehan et al.. After 72 h of incubation with the tested compounds, the cells were fixed in situ by gently adding cold 50% trichloroacetic acid—TCA (50 µL per well). The plates were incubated at 4 °C for 1 h and then washed five times with tap water and air-dried. Next, the cellular material fixed with TCA was stained by adding 50 µL of 0.4% sulforhodamine B dissolved in 1% acetic acid to each well and incubating the wells for 30 min at room temperature. The unbound dye was removed by washing the plates five times with 1% acetic acid, whereas the stain bound to the cells was extracted with 150 µL of 10 mM unbuffered Tris base for determination of the optical density at a 540 nm wavelength in a computer-interfaced, 96-well microtiter plate reader–Multiskan FC photometer (Thermo Scientific, Waltham, MA, USA). The background optical density was measured in the wells filled with culture medium, without the cells.
(§3) Twenty-four hours before incubation with the tested compounds, the cells were seeded in 96-well plates (Sarstedt, Nümbrecht, Germany) at a density of 10^4 cells per well (10^3 cells per well for HLMEC) in 100 µL of culture medium. The analysis of the antiproliferative activity of the compounds was performed using sulforhothamine B (SRB) (for all the adherent cells) or 3-(4,5-dimethylthiazol-2-yl)-2,5-diphenyl tetrazolium bromide (MTT) (for the leukemia cells—MV-4-11). The details of this technique have been previously described by Skehan et al. and Antoszak et al.. An assay was performed after 72 h of exposure at varying concentrations (from 0.1 to 100 µg mL^−1) of xanthohumol (1), aurone (2) and the reference drug cisplatin. Each compound at each concentration was tested in a single experiment, which was repeated at least 3 times. […] The results were calculated as the IC50 (μM) (half maximal inhibitory concentration), i.e., the concentration of the tested agent that inhibits the proliferation of the cancer cell population by half. […]

[2] = test system: T47D human breast ductal carcinoma cells; test: In vitro antiproliferative assay (SRB), T47D; conditions: for IC50: Homo sapiens, T47D, 72 h exposure, SRB, mean ± SD; for Calculated selectivity index SIB: IC50 BALB/3T3/IC50 T47D; for Calculated selectivity index SIA: IC50 HLMEC/IC50 T47D
Excerpt: as §1, §2, §3

[3] = test system: HT-29 human colorectal adenocarcinoma cells; test: In vitro antiproliferative assay (SRB), HT-29; conditions: for IC50: HT-29, 72 h exposure, SRB, mean ± SD; for Calculated selectivity index SIB: IC50 BALB/3T3/IC50 HT-29; for Calculated selectivity index SIA: IC50 HLMEC/IC50 HT-29
Excerpt: as §1, §2, §3

[4] = test system: LoVo human colorectal adenocarcinoma cells; test: In vitro antiproliferative assay (SRB), LoVo; conditions: for IC50: Homo sapiens, LoVo, 72 h exposure, SRB, mean ± SD; for Calculated selectivity index SIB: IC50 BALB/3T3/IC50 LoVo; for Calculated selectivity index SIA: IC50 HLMEC/IC50 LoVo
Excerpt: as §1, §2, §3

[5] = test system: LoVo/Dx doxorubicin-resistant human colorectal adenocarcinoma cells; test: In vitro antiproliferative assay (SRB), LoVo/Dx; conditions: for IC50: Homo sapiens, LoVo/Dx, 72 h exposure, SRB, mean ± SD; for Calculated selectivity index SIB: IC50 BALB/3T3/IC50 LoVo/Dx; for Calculated selectivity index SIA: IC50 HLMEC/IC50 LoVo/Dx
Excerpt: as §1, §2, §3

[6] = test system: normal murine embryonic fibroblasts (BALB/3T3); test: In vitro cytotoxicity against normal cells (SRB), BALB/3T3; conditions: BALB/3T3; for IC50: Mus musculus, BALB3T3 normal cell line, 72 h exposure, SRB, mean ± SD, read-out: Antiproliferative activity IC50
Excerpt: as §1
The details of this technique were described by Skehan et al.. […] The unbound dye was removed by washing the plates five times with 1% acetic acid, whereas the stain bound to the cells was extracted with 150 µL of 10 mM unbuffered Tris base for determination of the optical density at a 540 nm wavelength in a computer-interfaced, 96-well microtiter plate reader–Multiskan FC photometer (Thermo Scientific, Waltham, MA, USA). The background optical density was measured in the wells filled with culture medium, without the cells.
Twenty-four hours before incubation with the tested compounds, the cells were seeded in 96-well plates (Sarstedt, Nümbrecht, Germany) at a density of 10^4 cells per well (10^3 cells per well for HLMEC) in 100 µL of culture medium. […] The results were calculated as the IC50 (μM) (half maximal inhibitory concentration), i.e., the concentration of the tested agent that inhibits the proliferation of the cancer cell population by half. […]

SMILES	IC50 [1] [µM]	Calculated selectivity index SIB [1]	Calculated selectivity index SIA [1]	IC50 [2] [µM]	Calculated selectivity index SIB [2]	Calculated selectivity index SIA [2]	IC50 ([3]; listed as xanthohumol (1)) [µM]	IC50 ([3]; Homo sapiens, HT-29, 72 h) [µM]	Calculated selectivity index SIB [3]	Calculated selectivity index SIA [3]	IC50 [4] [µM]	Calculated selectivity index SIB [4]	Calculated selectivity index SIA [4]	IC50 [5] [µM]	Calculated selectivity index SIB [5]	Calculated selectivity index SIA [5]	IC50 [6] [µM]	IC50 ([3]; listed as aurone (2)) [µM]	Calculated selectivity index SIB ([5]; listed as aurone (2))	reduction of cytotoxic effect against normal cells relative to xanthohumol (1) ([6]; p < 0.05) [fold]
COc1cc(O)c(CC=C(C)C)c(O)c1C(=O)/C=C/c1ccc(O)cc1 [compound 1, 3′-[3″,3″-dimethylallyl]-2′,4′,4-trihydroxy-6′-methoxychalcone]	12.6 ± 2.28	1.56	2.89	8.27 ± 1.23	2.37	4.39	91.3 ± 8.92	> 50	0.21	0.40	5.53 ± 1.64	3.55	6.56	7.28 ± 1.22	2.70	4.99	19.6 ± 2.95			
COc1cc(O)c(CC=C(C)C)c2c1C(=O)/C(=C/c1ccc(O)cc1)O2 [compound 2, (Z)-6,4′-dihydroxy-4-methoxy-7-prenylaurone]	11.3 ± 0.17	3.93	4.67	8.09 ± 2.21	5.50	6.53		> 50	0.72	0.85	8.85 ± 4.85	5.02	5.97	7.83 ± 2.82	5.68	6.75	44.5 ± 5.16	62.1 ± 16.5	5.97	2.3
